The values below come from patent publication US20250084078A1, “FUSED RING-SUBSTITUTED SIX-MEMBERED HETEROCYCLIC COMPOUND, AND PREPARATION METHOD THEREFOR AND USE THEREOF” (GENFLEFT THERAPEUTICS (SHANGHAI) INC., priority 2022, published 2025).

Test [1] has as its target HPK1 (Homo sapiens, UniProt Q92918). The test is described as follows: SLP76 phosphorylation assay (intracellular HPK1 inhibitory activity, p-SLP76 S376 ELISA in Jurkat cells). The following applies: Clone E6-1 cells, 1 h compound pre-incubation, anti-CD3 beads stimulation 20 min, Phospho-SLP-76 (Ser376) ELISA.
Target sequence in this assay (Q92918 whole entry): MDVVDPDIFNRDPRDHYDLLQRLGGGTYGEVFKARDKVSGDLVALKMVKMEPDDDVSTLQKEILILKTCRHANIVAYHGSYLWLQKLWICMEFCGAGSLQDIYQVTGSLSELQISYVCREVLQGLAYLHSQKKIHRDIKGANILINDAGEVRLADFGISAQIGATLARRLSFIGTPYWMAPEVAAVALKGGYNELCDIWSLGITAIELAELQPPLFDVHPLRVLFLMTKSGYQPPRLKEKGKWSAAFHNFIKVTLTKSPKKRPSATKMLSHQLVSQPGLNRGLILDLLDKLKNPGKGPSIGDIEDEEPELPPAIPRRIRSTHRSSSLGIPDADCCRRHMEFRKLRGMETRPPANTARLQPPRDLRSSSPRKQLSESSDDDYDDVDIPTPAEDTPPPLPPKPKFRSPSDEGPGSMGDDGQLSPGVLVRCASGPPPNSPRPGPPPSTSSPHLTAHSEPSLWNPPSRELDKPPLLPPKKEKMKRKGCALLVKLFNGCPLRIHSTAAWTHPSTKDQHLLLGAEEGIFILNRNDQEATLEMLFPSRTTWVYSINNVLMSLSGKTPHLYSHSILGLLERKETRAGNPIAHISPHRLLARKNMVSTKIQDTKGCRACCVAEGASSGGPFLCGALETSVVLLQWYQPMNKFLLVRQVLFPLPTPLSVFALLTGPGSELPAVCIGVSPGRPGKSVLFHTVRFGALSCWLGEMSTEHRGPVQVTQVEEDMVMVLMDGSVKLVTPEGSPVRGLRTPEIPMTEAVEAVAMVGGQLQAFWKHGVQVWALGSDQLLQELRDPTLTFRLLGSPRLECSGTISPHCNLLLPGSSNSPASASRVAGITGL
The target of test [2] is T1, HPK1 (Homo sapiens, UniProt Q92918).
T1 sequence (Q92918 1-346): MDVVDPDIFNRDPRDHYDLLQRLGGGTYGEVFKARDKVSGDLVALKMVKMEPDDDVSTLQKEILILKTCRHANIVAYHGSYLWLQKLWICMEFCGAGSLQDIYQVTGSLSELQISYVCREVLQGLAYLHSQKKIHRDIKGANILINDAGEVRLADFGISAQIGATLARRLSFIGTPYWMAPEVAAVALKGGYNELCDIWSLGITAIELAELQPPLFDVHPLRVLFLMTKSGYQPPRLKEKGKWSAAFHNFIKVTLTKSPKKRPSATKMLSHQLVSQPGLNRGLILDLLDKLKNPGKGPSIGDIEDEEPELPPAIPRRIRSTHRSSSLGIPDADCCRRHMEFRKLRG
Briefly: HPK1 kinase activity assay (ADP-Glo). The settings on record: 1 nM HPK1, 10 μM ATP, 0.1 μg/μL MBP. (In general: ADP-Glo turns the ADP formed in a reaction into a luminescent signal.)
Procedure: Preparation of buffer: Ix reaction buffer (40 mM Tris-HCl, 20 mM MgCl2, 0.01% Brij35, 50 μM DTT, 0.1 mg/ml BSA) was prepared using sterile water, which was prepared and used on the day of the experiment.
Preparation of 1000× drug stock plate: a 1000× compound stock plate was prepared. […] The compound stock plate was sealed with a sealing film and stored in a −20° C. refrigerator for later use.
Compound preparation and dosing: the 1000× drug stock plate was taken and melted at room temperature in the dark. Then 5× drug intermediate plate was prepared using reaction buffer and mixed well. 2 μL was transferred from the 5× drug intermediate plate into a 384-well plate, and negative control well and positive control well (in which 2 μL reaction buffer containing 0.5% DMSO was added) were set. Each point was repeated twice.
Preparation and incubation of reaction mixture: HPK1 protein was diluted to a 2.5× working solution with reaction buffer. 4 μL 2.5×HPK1 protein was added to each well containing test compound and positive control well, and 4 μL of reaction buffer without HPK1 protein was added to the negative control well. The obtained mixture was centrifuged at 1000 rpm for 1 min and then incubated in a 20° C. incubator for 15 min. A 2.5× mixed working solution of MBP protein and ATP was prepared with reaction buffer at concentrations of 0.5 μg/μL and 50 μM, respectively. 4 μL of the mixed working solution of MBP and ATP was added to each well, centrifuged at 1000 rpm for 1 min, and then incubated in a 20° C. incubator for 90 min.
ADP-Glo detection and reading plate: 10 μl ADP-Glo was added to each well of the test plate. The resulting mixture was centrifuged at 1000 rpm for 1 min and incubated in a 20° C. incubator for 60 min. Then 10 μL of the final incubation solution was transferred from the test plate to a new 384-well plate. 10 μL of kinase detection reagent was added to each well, centrifuged at 400 g for 1 min, and incubated in a 20° C. incubator for 60 min Chemiluminescent signals were read by a microplate reader.

The mark [3] stands for this setting: read-out: HPK1 Kinase activity IC50, ADP-Glo.
[4] abbreviates: HPK1 Kinase activity IC50, ADP-Glo.

Turning to “5-(8-(4-fluoropyrrolidin-2-yl)isochromen-6-yl)-3-methyl-1H-pyrrolo[2,3-b]pyridine [Compound Z367-1]”, the IC50 amounted to 999 nM at HPK1 [1] (read-out: p-SLP76 IC50, Jurkat) and 1.44 nM on HPK1 [2] (setting [3]). As for `Cc1c[nH]c2ncc(-c3cc4c(c([C@@H]5CCCN5)c3)CN(C(=O)C(C)O)C4)cc12` (mixture of isomers) [Compound Z382, rac-2-hydroxy-1-(6-(3-methyl-1H-pyrrolo[2,3-b]pyridin-5-yl)-4-((R)-pyrrolidin-2-yl)isoindolin-2-yl)propan-1-one], the IC50 amounted to 474 nM against HPK1 [1] (p-SLP76 IC50, Jurkat) and 1.35 nM against HPK1 [2] (setting [4]).

For the molecule `Cc1c[nH]c2ncc(-c3cc4c(c([C@@H]5CCCN5)c3)CN(C(=O)[C@H](O)c3cccnc3)CC4)cc12` (single isomer, unassigned) [Compound Z287], the IC50 was 338 nM on HPK1 [1] (p-SLP76 IC50, Jurkat) and 0.4 nM against HPK1 [2] (setting [4]). For `Cc1c[nH]c2ncc(-c3cc4c(c([C@@H]5CCCN5)c3)CN(C(=O)[C@@H](O)c3cccnc3)CC4)cc12` (single isomer, unassigned) [Compound Z288], in that order: 321 nM and 0.69 nM.

`Cc1c[nH]c2ncc(-c3cc4c(c(C5COCCN5)c3)CN(C(=O)[C@](C)(O)C(F)(F)F)CC4)cc12` (single isomer, unassigned) [Compound Z309-2] registered a concentration for half-maximal inhibition (IC50) on HPK1 [2] (setting [4]) of 22.7 nM. On to `Cc1c[nH]c2ncc(-c3cc4c(c([C@@H]5CCCN5)c3)CN(C(=O)N3CCOC(C(F)(F)F)C3)CC4)cc12` (single isomer, unassigned) [Compound Z490], for which the IC50 came out at 430 nM against HPK1 [1] (p-SLP76 IC50, Jurkat) and 1.66 nM against HPK1 [2] (setting [4]). `Cc1c[nH]c2ncc(-c3cc4c(c([C@@H]5CCCN5)c3)CN(C(=O)N3CCOC(C(F)(F)F)C3)CC4)cc12` (single isomer, unassigned) [Compound Z491]: the IC50 at HPK1 [1] (p-SLP76 IC50, Jurkat) was 308 nM; at HPK1 [2] (setting [4]), 1.29 nM. For `O=C(N1CCc2cc(-c3cnc4[nH]cc(Cl)c4n3)cc([C@@H]3COCCN3)c2C1)N1C[C@@H]2CC[C@H]1CO2` (single isomer, unassigned) [Compound Z590] the same measures were 61.7 nM and 0.24 nM.

On to `Cc1c[nH]c2ncc(-c3cc4c(c([C@@H]5COCCN5)c3)CN(C(=O)N3C[C@@H]5CC[C@H]3CO5)CC4)cc12` (single isomer, unassigned) [Compound Z644], for which the 50% inhibitory concentration (IC50) against HPK1 [1] (p-SLP76 IC50, Jurkat) turned out to be 61.6 nM; against HPK1 [2] (setting [4]) it was 0.25 nM. Take `CCC(=O)N1CCc2cc(-c3cnc4[nH]cc(C)c4c3)cc(C3CCCN3)c2C1` (stereo not shown) [Compound Z35]: inhibition against HPK1 [2] (setting [4]) was half-maximal at 0.87 nM (IC50). With `Cc1c[nH]c2ncc(-c3cc4c(c([C@@H]5CCCN5)c3)CN(C(=O)C(C)(C)C)CC4)cc12` [Compound Z126], the half-inhibitory concentration (IC50) at HPK1 [1] (p-SLP76 IC50, Jurkat) came out at 252 nM; on HPK1 [2] (setting [4]) it was 0.78 nM. `Cc1c[nH]c2ncc(-c3cc4c(c([C@@H]5CCCN5)c3)CN(C(=O)CC3CC3)CC4)cc12` [Compound Z220, (S)-2-cyclopropyl-1-(6-(3-methyl-1H-pyrrolo[2,3-b]pyridin-5-yl)-8-(pyrrolidin-2-yl)-3,4-dihydroisoquinolin-2(1H)-yl)ethanone]: the 50% inhibitory concentration (IC50) at HPK1 [1] (read-out: p-SLP76 IC50, Jurkat) is 469 nM; on HPK1 [2] (setting [3]), 2.26 nM. In the case of `Cc1cc(CC(=O)N2CCc3c(cc(-c4cnc5[nH]cc(C)c5c4)cc3[C@@H]3CCCN3)C2)ccn1` [Compound Z333, (S)-2-(2-methyl-4-pyridyl)-1-[7-(3-methyl-1H-pyrrolo[2,3-b]pyridin-5-yl)-5-pyrrolidin-2-yl-3,4-dihydro-1H-isoquinolin-2-yl]ethanone], the 50% inhibitory concentration (IC50) at HPK1 [1] (p-SLP76 IC50, Jurkat) came to 205 nM; against HPK1 [2] (setting [4]), 0.49 nM. Turning to `Cc1cn(C2CC2)nc1C(=O)N1CCc2cc(-c3cnc4[nH]cc(C)c4c3)cc([C@@H]3CCCN3)c2C1` [Compound Z342, (S)-(1-cyclopropyl-4-methyl-1H-pyrazol-3-yl)-[6-(3-methyl-1H-pyrrolo[2,3-b]pyridin-5-yl)-8-[pyrrolidin-2-yl]-3,4-dihydro-2(1H)-isoquinolin-yl]methanone], the concentration for half-maximal inhibition (IC50) at HPK1 [2] (setting [3]) stood at 0.64 nM.

On to `Cc1c[nH]c2ncc(-c3cc4c(c([C@H]5COCCN5)c3)CCN(C(=O)C3CCOCC3)C4)cc12` [Compound Z449, (S)-(7-(3-methyl-1H-pyrrolo[2,3-b]pyridin-5-yl)-5-(morpholin-3-yl)-3,4-dihydroisoquinolin-2(1H)-yl)(tetrahydro-2H-pyran-4-yl)methanone], for which, at HPK1 [2] (setting [4]), the IC50 came to 12.4 nM. With `COc1c[nH]c2ncc(-c3cc4c(c([C@@H]5COCCN5)c3)CN(C(=O)C(C)(C)O)CC4)cc12` [Compound Z576, (R)-2-hydroxy-1-(6-(3-methoxy-1H-pyrrolo[2,3-b]pyridin-5-yl)-8-(morpholin-3-yl)-3,4-dihydroisoquinolin-2(1H)-yl)-2-methylpropan-1-one], the concentration for half-maximal inhibition (IC50) against HPK1 [1] (p-SLP76 IC50, Jurkat) worked out at 188 nM. Same read-out and setting: as for `Cc1cccnc1C#Cc1c[nH]c2ncc(-c3cc4c(c([C@@H]5COCCN5)c3)CN(C(=O)C(C)(C)O)CC4)cc12` [Compound Z578, (R)-2-hydroxy-2-methyl-1-(6-(3-50 ((3-methylpyridin-2-yl)ethynyl)-1H-pyrrolo[2,3-b]pyridin-5-yl)-8-(morpholin-3-yl)-3,4-dihydroisoquinolin-2(1H)-yl)propan-1-one], the figure is 163 nM; as for `Cc1c[nH]c2ncc(-c3cc4c(c([C@@H]5COCCN5)c3)CN(C(=O)N3CC5(COC5)C3)CC4)cc12` [Compound Z579, (R)-(6-(3-methyl-1H-pyrrolo[2,3-b]pyridin-5-yl)-8-(morpholin-3-yl)-3,4-dihydroisoquinolin-2(1H)-yl)(2-oxa-6-oxaspiro[3.3]heptan-6-yl)methanone], 276 nM.

Regarding `COc1c[nH]c2ncc(-c3cc4c(c([C@@H]5COCCN5)c3)CN(C(=O)N3C5CCC3COC5)CC4)cc12` [Compound Z582], inhibition against HPK1 [1] (p-SLP76 IC50, Jurkat) was half-maximal at 160 nM (IC50). Same read-out and setting: with `N#Cc1c[nH]c2ncc(-c3cc4c(c([C@@H]5COCCN5)c3)CN(C(=O)N3C5CCC3COC5)CC4)nc12` [Compound Z583, 2-(2-(3-oxa-8-azabicyclo[3.2.1]octane-8-carbonyl)-8-((R)-morpholin-3-yl)-1,2,3,4-tetrahydroisoquinolin-6-yl)-5H-pyrrolo[2,3-b]pyrazine-7-carbonitrile] the figure was 2670 nM. Still for that read-out and setting: as for `O=C(N1CCc2cc(-c3cnc4[nH]cc(C(F)(F)F)c4n3)cc([C@@H]3COCCN3)c2C1)N1C2CCC1COC2` [Compound Z584, (3-oxa-8-azabicyclo[3.2.1]octan-8-yl)(8-((R)-morpholin-3-yl)-6-(7-(trifluoromethyl)-5H-pyrrolo[2,3-b]pyrazin-2-yl)-3,4-dihydroisoquinolin-2(1H)-yl)methanone], the figure is 127 nM; as for `COC1CCN(C(=O)N2CCc3cc(-c4cnc5[nH]cc(Cl)c5c4)cc([C@@H]4COCCN4)c3C2)CC1` [Compound Z589, (R)-(6-(3-chloro-1H-pyrrolo[2,3-b]pyridin-5-yl)-8-(morpholin-3-yl)-3,4-dihydroisoquinolin-2(1H)-yl)(4-methoxypiperidin-1-yl)methanone], 246 nM; as for `COc1c[nH]c2ncc(-c3cc4c(c([C@@H]5COCCN5)c3)CN(C(=O)N3CC5CCC(C3)O5)CC4)cc12` [Compound Z592], 215 nM. In turn, `CC(=O)c1c[nH]c2ncc(-c3cc4c(c([C@@H]5COCCN5)c3)CN(C(=O)C(C)(C)O)CC4)cc12` [Compound Z593, (R)-1-(6-(3-acetyl-1H-pyrrolo[2,3-b]pyridin-5-yl)-8-(morpholin-3-yl)-3,4-dihydroisoquinolin-2(1H)-yl)-2-hydroxy-2-methylpropan-1-one] yielded an IC50 against HPK1 [1] (p-SLP76 IC50, Jurkat) of 317 nM. The molecule `C#Cc1c[nH]c2ncc(-c3cc4c(c([C@@H]5COCCN5)c3)CN(C(=O)C(C)(C)O)CC4)cc12` [Compound Z594, (R)-1-(6-(3-ethynyl-1H-pyrrolo[2,3-b]pyridin-5-yl)-8-(morpholin-3-yl)-3,4-dihydroisoquinolin-2(1H)-yl)-2-hydroxy-2-methylpropan-1-one] registered an IC50 against HPK1 [1] (p-SLP76 IC50, Jurkat) of 825 nM. Same read-out and setting: as for `C[C@@H]1CN(C(=O)N2CCc3cc(-c4cnc5[nH]cc(Cl)c5c4)cc([C@@H]4COCCN4)c3C2)C[C@@H](C)O1` [Compound Z599, (6-(3-chloro-1H-pyrrolo[2,3-b]pyridin-5-yl)-8-((R)-morpholin-3-yl)-3,4-dihydroisoquinolin-2(1H)-yl)((2R,6R)-2,6-dimethylmorpholinyl)methanone], the figure is 184 nM; as for `C[C@H]1COCCN1C(=O)N1CCc2cc(-c3cnc4[nH]cc(Cl)c4c3)cc([C@@H]3COCCN3)c2C1` [Compound Z613], 136 nM; as for `Cc1c[nH]c2ncc(-c3cc4c(c([C@@H]5COCCN5)c3)CN(C(=O)[C@H]3CCOC3)CC4)nc12` [Compound Z630, (6-(7-methyl-5H-pyrrolo[2,3-b]pyrazin-2-yl)-8-((R)-morpholin-3-yl)-3,4-dihydroisoquinolin-2(1H)-yl)((S)-tetrahydrofuran-3-yl)methanone], 247 nM. On the same count and under the same terms, with `O=C([C@H]1CCOC1)N1CCc2cc(-c3cnc4[nH]cc(Cl)c4c3)cc([C@@H]3COCCN3)c2C1` [Compound Z631, (6-(3-chloro-1H-pyrrolo[2,3-b]pyridin-5-yl)-8-((R)-morpholin-3-yl)-3,4-dihydroisoquinolin-2(1H)-yl)((S)-tetrahydrofuran-3-yl)methanone] the figure was 240 nM.

As usually defined, the IC50 is the concentration that gives 50% inhibition.
